Assays:
Settings in all cases: treatment: drug alone; 5 days
A498 [1] = experiment: minimum viability across doses, drug alone, relative to DMSO (fraction); higher = less growth inhibition
Procedure: (§1)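 Primary HTS: 8 RCC cell lines treated with 8 doses (up to 10 uM) of each library drug alone for 5 days; viability read by CellTiter-Glo and normalised to DMSO. GI50 was fitted with XLfit (4-parameter), AUC is the area under the dose-response curve, and minimum viability is the lowest fraction of DMSO viability across doses.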

786-O [2] = experiment: as above
Procedure: as §1

UO-31 [3] = experiment: as above
Procedure: as §1

TK-10 [4] = experiment: as above
Procedure: as §1

CAKI-1 [5] = experiment: as above
Procedure: as §1

SN12C [6] = experiment: as above
Procedure: as §1

769-P [7] = experiment: as above
Procedure: as §1

ACHN [8] = experiment: as above
Procedure: as §1

A498 [9] = experiment: AUC of dose-response viability curve, drug alone (arbitrary (AUC of normalised viability)); higher = less growth inhibition
Procedure: as §1

786-O [10] = experiment: as above
Procedure: as §1

UO-31 [11] = experiment: as above
Procedure: as §1

TK-10 [12] = experiment: as above
Procedure: as §1

CAKI-1 [13] = experiment: as above
Procedure: as §1

SN12C [14] = experiment: as above
Procedure: as §1

769-P [15] = experiment: as above
Procedure: as §1

ACHN [16] = experiment: as above
Procedure: as §1

A498 [17] = experiment: GI50, drug alone; higher = less potent
Procedure: as §1

786-O [18] = experiment: GI50, drug alone; higher = less potent
Procedure: as §1

UO-31 [19] = experiment: GI50, drug alone; higher = less potent
Procedure: as §1

TK-10 [20] = experiment: GI50, drug alone; higher = less potent
Procedure: as §1

CAKI-1 [21] = experiment: GI50, drug alone; higher = less potent
Procedure: as §1

SN12C [22] = experiment: GI50, drug alone; higher = less potent
Procedure: as §1

769-P [23] = experiment: GI50, drug alone; higher = less potent
Procedure: as §1

ACHN [24] = experiment: GI50, drug alone; higher = less potent
Procedure: as §1

| Compound | minimum viability across doses (A498 [1]) | minimum viability across doses (786-O [2]) | minimum viability across doses (UO-31 [3]) | minimum viability across doses (TK-10 [4]) | minimum viability across doses (CAKI-1 [5]) | minimum viability across doses (SN12C [6]) | minimum viability across doses (769-P [7]) | minimum viability across doses (ACHN [8]) | AUC of dose-response viability curve (A498 [9]) | AUC of dose-response viability curve (786-O [10]) | AUC of dose-response viability curve (UO-31 [11]) | AUC of dose-response viability curve (TK-10 [12]) | AUC of dose-response viability curve (CAKI-1 [13]) | AUC of dose-response viability curve (SN12C [14]) | AUC of dose-response viability curve (769-P [15]) | AUC of dose-response viability curve (ACHN [16]) | GI50, drug alone (A498 [17]) [µM] | GI50, drug alone (786-O [18]) [µM] | GI50, drug alone (UO-31 [19]) [µM] | GI50, drug alone (TK-10 [20]) [µM] | GI50, drug alone (CAKI-1 [21]) [µM] | GI50, drug alone (SN12C [22]) [µM] | GI50, drug alone (769-P [23]) [µM] | GI50, drug alone (ACHN [24]) [µM] |
| --- | --- | --- | --- | --- | --- | --- | --- | --- | --- | --- | --- | --- | --- | --- | --- | --- | --- | --- | --- | --- | --- | --- | --- | --- |
| COc1cc(Nc2ncc(F)c(Nc3ccc4c(n3)N(COP(=O)([O-])[O-])C(=O)C(C)(C)O4)n2)cc(OC)c1OC.[Na+].[Na+] | 0.898 | 0.125 | 0.0974 | 0.418 | 0.035 | 0.303 | 0.119 | 0.0693 | 3.85 | 2.1 | 4 | 2.53 | 2.49 | 2.73 | 3.1 | 2.42 | > 10 | 1.24 | 9.63 | 5.18 | 1.02 | 3.32 | 5.08 | 0.973 |
| COc1cc2ncnc(Nc3cccc(Br)c3)c2cc1OC.Cl | 0.923 | 0.00889 | 0.0153 | 0.181 | 0.378 | 0.825 | 0.357 | 0.268 | 4.63 | 2.81 | 4.18 | 2.36 | 2.92 | 3.17 | 2.36 | 2.07 | > 10 | 6.69 | 6.95 | 1.36 | 8.68 | > 10 | 1.49 | 0.582 |
| CNC(=O)c1ccc(C)c(-n2c(C)cc(OCc3ccc(F)cc3F)c(Br)c2=O)c1 | 1.12 | 0.437 | 0.835 | 0.596 | 0.705 | 0.738 | 0.765 | 0.464 | 4.54 | 1.88 | 3.74 | 2.51 | 3.1 | 2.94 | 3.15 | 2.53 | > 10 | < 0.003 | > 10 | > 10 | > 10 | > 10 | > 10 | 4.72 |
| CCc1cccc(CC)c1NC(=O)N1Cc2[nH]nc(NC(=O)c3ccc(N4CCN(C)CC4)cc3)c2C1 | 0.679 | 0.0395 | 0.811 | 0.336 | 0.262 | 0.238 | 0.87 | 0.233 | 3.29 | 2.21 | 3.85 | 2.92 | 2.76 | 2.76 | 3.41 | 2.85 | > 10 | 0.915 | > 10 | 5.38 | 2.92 | 2.15 | > 10 | 3.39 |
| CN(c1ncccc1CNc1nc(Nc2ccc3c(c2)CC(=O)N3)ncc1C(F)(F)F)S(C)(=O)=O.O=S(=O)(O)c1ccccc1 | 0.018 | 0.00443 | 0.0117 | 0.132 | 0.0631 | 0.0169 | 0.0576 | 0.0138 | 3.68 | 1.79 | 3.81 | 2.8 | 3.34 | 2.94 | 3.06 | 2.86 | 7.73 | 0.21 | 4.55 | 4.46 | 5.15 | 3.88 | 4.89 | 2.59 |
| CC(=O)NCC(=O)N1[C@H]2CC[C@H]1c1cc(Nc3ncc(C(F)(F)F)c(NC4CCC4)n3)ccc12 | 0.0256 | 0.0093 | 0.0196 | 0.128 | 0.123 | 0.0115 | 0.0288 | 0.0112 | 3.32 | 0.907 | 2.54 | 2.18 | 1.81 | 2.12 | 2.09 | 1.5 | 4.77 | 0.0151 | 2.64 | 0.725 | 0.173 | 0.557 | 0.375 | 0.0806 |
| OCCn1cc(-c2cnc3nnn(Cc4ccc5ncccc5c4)c3n2)cn1 | 0.984 | 1.01 | 1.15 | 0.804 | 0.615 | 0.879 | 0.883 | 0.542 | 4.04 | 4 | 4.37 | 3.18 | 2.32 | 3.37 | 3.3 | 2.48 | > 10 | > 10 | > 10 | > 10 | > 10 | > 10 | > 10 | > 10 |
| CNC(=O)c1nn(C)c2c1C(C)(C)Cc1cnc(Nc3ccc(N4CCN(C)CC4)cc3)nc1-2 | 0.0273 | 0.00535 | 0.0155 | 0.177 | 0.0591 | 0.0145 | 0.0249 | 0.0129 | 3.76 | 2.22 | 2.64 | 2.06 | 1.81 | 2.54 | 2.48 | 1.53 | 4.8 | 0.366 | 1.33 | 0.311 | 0.174 | 0.957 | 1 | 0.0953 |
| O=C(NOCC(O)CO)c1cc(Br)c(F)c(F)c1Nc1ccc(I)cc1F (stereo unspecified) | 0.89 | 0.263 | 0.816 | 0.419 | 0.202 | 0.602 | 0.427 | 0.372 | 3.58 | 1.94 | 3.29 | 2.4 | 2.32 | 2.83 | 2.62 | 2.42 | > 10 | 0.448 | > 10 | 2.84 | 1.25 | > 10 | 4.98 | 1.99 |

— the supplement of paper PMC8149375
